Test results reported in ChEMBL document CHEMBL1131006, “Antimycobacterial activity of substituted isosteres of pyridine- and pyrazinecarboxylic acids” (1998).
Values after ≈ are worked out from the molar mass of the structure shown.

Test system: Mycobacterium tuberculosis
Assay: Compound was tested for inhibitory activity against Mycobacterium tuberculosis H37Rv ATCC 27294 and the activity is expressed as minimum inhibitory concentration (MIC).
Type: functional

SMILES | MIC [µg/mL]
CC(C)(C)C(=O)OCn1nnnc1-c1cccnc1 | 105 (≈ 402 µM)
CSCC(=O)c1cccnc1 | 210 (≈ 1260 µM)
NNC(=O)c1ccncc1 [ISONIAZID] | < 0.02
O=c1cc(O)c2ccncc2o1 | > 210
c1cnc(C2N=NN=N2)cn1 | > 210
CC(C)(C)C(=O)OCn1nnc(-c2cnccn2)n1 | 26 (≈ 99.1 µM)
O=C(Oc1cc(=O)oc2cnccc12)c1ccccc1 | 210 (≈ 786 µM)
CC(C)(C)C(=O)OCn1nnc(-c2cccnc2)n1 | 13 (≈ 49.8 µM)
CSCC(=O)c1ccncc1 | 210 (≈ 1260 µM)
CCOC(=O)Oc1cc(=O)oc2cnccc12 | > 210
NC(=O)c1cnccn1 [PYRAZINAMIDE] | 52 (≈ 422 µM)
CC(=O)Oc1cc(=O)oc2cnccc12 | > 210
C[S+]([O-])CC(=O)c1cccnc1 (stereo unspecified) | > 210
c1cc(C2N=NN=N2)ccn1 | > 210
c1cncc(C2N=NN=N2)c1 | > 210
CSCC(=O)c1cnccn1 | 105 (≈ 624 µM)
C[S+]([O-])CC(=O)c1ccncc1 (stereo unspecified) | > 210
CC(C)(C)C(=O)OCn1nnnc1-c1ccncc1 | 52 (≈ 199 µM)
CC(C)(C)C(=O)OCn1nnnc1-c1cnccn1 | 13 (≈ 49.6 µM)
C[S+]([O-])CC(=O)c1cnccn1 (stereo unspecified) | > 210
CC(C)(C)C(=O)OCn1nnc(-c2ccncc2)n1 | 26 (≈ 99.5 µM)
